# Test system: SUM149PT spheroids with HUVEC/MSC, viability
# Assay: Anticancer human tumor SUM149PT cell line growth inhibition [GQUAD];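 note: spheroids exposed to drugs for seven days before readout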;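 for viability, T/C: percent viability relative to DMSO vehicle control taken as 100%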
# Details: for IC50: curve of first compound; for viability, T/C: stronger effect = lower value
# Text: DNA G-quadruplex Stabilizer Agents in Combinations in Complex Spheroids
# A high-throughput screen of multi-cell type tumor spheroids was designed to identify active combinations of DNA G-quadruplex stabilizer agents and targeted small molecules. Complex spheroids include a stromal component modeled by human endothelial cells (HUVEC) and fibroblasts modeled by human mesenchymal stem cells (MSCs). The concentration ranges selected for each drug and investigational agent were based upon clinically achievable concentrations if the clinical Cmax of the agent was known.
# Compounds. The drugs and investigational agents: pidnarulex (CX-5461; NSC782164), APTO-253 (NSC789042), BRACO-19 (NSC847499), peposertib (NSC802822), ceralasertib (NSC780249), elimusertib (NSC800525), camonsertib (NSC841442), AZD-1390 (NSC803789), olaparib (NSC753686), talazoparib (NSC767125), ART-558 (NSC835418), sotorasib (NSC818433), MRTX-1133 (NSC836407), SN-38 (NSC673596), topotecan (NSC609699), etoposide (NSC141540), doxorubicin (NSC123127), gemcitabine (NSC613327), 5-fluorouracil (NSC19893), paclitaxel (NSC125973), vemurafenib (NSC761431), panobinostat (NSC761190), R-306465 (JNJ-16241199; NSC773264), adavosertib (NSC754352), TP-3654 (NSC805149), carboplatin (NSC241240), KSQ-4279 (NSC840948), and staurosporine (NSC755774) were obtained from the National Cancer Institute (NCI) Developmental Therapeutics Program Chemical Repository (34). The FDA-approved anticancer drug set is available from the NCI Developmental Therapeutics Program. […] The stock solutions were prepared in dimethyl sulfoxide (DMSO, Sigma-Aldrich, St. Louis, MO, cat. D2650) at 800-fold the tested concentration and stored at -70 degrees C prior to their use. All drugs and investigational agents were tested over a range starting from a high concentration at or near the clinical Cmax and decreasing in half-log increments. If the clinical Cmax for an agent had not been determined, the highest concentration tested was 10 microM.
# 2.3 Cell Culture. All cells were maintained in an incubator at 37 degrees C and 5% CO2 with 95% humidity. The PDC lines were cultured according to standard operating procedures established by the NCI PDMR. All PDCs were thawed and cultured in Matrigel-coated flasks prepared with a working solution of 1X Ham's F-12 nutrient mix, without supplementation (Invitrogen, cat. 11765054), 100 U/mL penicillin-streptomycin (Invitrogen, cat. 15140122), and 2.5% Matrigel (Corning Inc., cat. 354248) for the first three passages. The 857933-349-R-J2-PDC line was cultured in 6C/Colon 1B media, which includes advanced DMEM/F-12 (Thermo Fisher Scientific, cat. 12634028), 10 mM HEPES (Thermo Fisher Scientific, cat. 15630080), 1X GlutaMAX supplement (Thermo Fisher Scientific, cat. 35050061), 0.1 mg/mL primocin (InvivoGen, cat. ant-pm-2), 10% defined fetal bovine serum, heat inactivated (HyClone Laboratories Inc., cat. SH30070.03HI), 50% L-WRN conditioned media (ATCC, cat. CRL-3276), 1.25 mM N-Acetyl-L-cysteine (Sigma-Aldrich, cat. A9165), 10 mM nicotinamide (Sigma-Aldrich, cat. N0636), 1X B-27 supplement (Thermo Fisher Scientific, cat. 17504044), 1X N-2 supplement (Thermo Fisher Scientific, cat. 17502048), 10 microM Y-27632 dihydrochloride (Tocris Bioscience, cat. 1254), and 50 ng/mL human EGF recombinant protein (Thermo Fisher Scientific, cat. PHG0311). The 485176-168-R4-J1-PDC line was cultured in Panc media, which includes all 6C/Colon 1B media components plus 100 ng/mL human FGF-10 (Thermo Fisher Scientific, cat. 100-26), 500 nM SB-431542 (Selleckchem, cat. S1067), and gastrin (Tocris, cat. 3006).
# […]
# [1] = second compound 0.0316 µM, first compound 0.0316 µM
# [2] = second compound 0.0316 µM, first compound 0.1 µM
# [3] = second compound 0.0316 µM, first compound 0.316 µM
# [4] = second compound 0.0316 µM, first compound 1 µM
# [5] = second compound 0.0316 µM, first compound 3.16 µM
# [6] = second compound 0.0316 µM, first compound 10 µM
# [7] = second compound 0.1 µM, first compound 0.0316 µM
# [8] = second compound 0.1 µM, first compound 0.1 µM
# [9] = second compound 0.1 µM, first compound 0.316 µM
# [10] = second compound 0.1 µM, first compound 1 µM
# [11] = second compound 0.1 µM, first compound 3.16 µM
# [12] = second compound 0.1 µM, first compound 10 µM
# [13] = second compound 0.316 µM, first compound 0.0316 µM
# [14] = second compound 0.316 µM, first compound 0.1 µM
# [15] = second compound 0.316 µM, first compound 0.316 µM
# [16] = second compound 0.316 µM, first compound 1 µM
# [17] = second compound 0.316 µM, first compound 3.16 µM
# [18] = second compound 0.316 µM, first compound 10 µM
# [19] = second compound 1 µM, first compound 0.0316 µM
# [20] = second compound 1 µM, first compound 0.1 µM
# [21] = second compound 1 µM, first compound 0.316 µM
# [22] = second compound 1 µM, first compound 1 µM
# [23] = second compound 1 µM, first compound 3.16 µM
# [24] = second compound 1 µM, first compound 10 µM
# [25] = second compound 3.16 µM, first compound 0.0316 µM
# [26] = second compound 3.16 µM, first compound 0.1 µM
# [27] = second compound 3.16 µM, first compound 0.316 µM
# [28] = second compound 3.16 µM, first compound 1 µM
# [29] = second compound 3.16 µM, first compound 3.16 µM
# [30] = second compound 3.16 µM, first compound 10 µM
# [31] = second compound 10 µM, first compound 0.0316 µM
# [32] = second compound 10 µM, first compound 0.1 µM
# [33] = second compound 10 µM, first compound 0.316 µM
# [34] = second compound 10 µM, first compound 1 µM
# [35] = second compound 10 µM, first compound 3.16 µM
# [36] = second compound 10 µM, first compound 10 µM
compound,measurement,setting,value
CCCS(=O)(=O)Nc1ccc(F)c(C(=O)c2c[nH]c3ncc(-c4ccc(Cl)cc4)cc23)c1F + CN(C)c1ccc(Nc2c3ccc(NC(=O)CCN4CCCC4)cc3nc3cc(NC(=O)CCN4CCCC4)ccc23)cc1,IC50,second compound 0.0316 µM,7.63 µM
same,IC50,second compound 0.1 µM,7.28 µM
same,IC50,second compound 0.316 µM,7.79 µM
same,IC50,second compound 1 µM,4.18 µM
same,IC50,second compound 3.16 µM,3.09 µM
same,IC50,second compound 10 µM,2.4 µM
same,"viability, T/C",[1],108%
same,"viability, T/C",[2],91.9%
same,"viability, T/C",[3],103%
same,"viability, T/C",[4],98.1%
same,"viability, T/C",[5],74.5%
same,"viability, T/C",[6],42.4%
same,"viability, T/C",[7],95.7%
same,"viability, T/C",[8],103%
same,"viability, T/C",[9],102%
same,"viability, T/C",[10],100%
same,"viability, T/C",[11],76.3%
same,"viability, T/C",[12],40%
same,"viability, T/C",[13],96.4%
same,"viability, T/C",[14],96.2%
same,"viability, T/C",[15],96.4%
same,"viability, T/C",[16],90%
same,"viability, T/C",[17],67%
same,"viability, T/C",[18],45.3%
same,"viability, T/C",[19],92.2%
same,"viability, T/C",[20],84.3%
same,"viability, T/C",[21],91%
same,"viability, T/C",[22],89.7%
same,"viability, T/C",[23],54.6%
same,"viability, T/C",[24],35.4%
same,"viability, T/C",[25],83.2%
same,"viability, T/C",[26],89.6%
same,"viability, T/C",[27],86.4%
same,"viability, T/C",[28],81.7%
same,"viability, T/C",[29],49.3%
same,"viability, T/C",[30],24%
same,"viability, T/C",[31],84.8%
same,"viability, T/C",[32],80.4%
same,"viability, T/C",[33],89.6%
same,"viability, T/C",[34],71.1%
same,"viability, T/C",[35],43.2%
same,"viability, T/C",[36],11.9%
CC1COCCN1c1cc(C2(O)CC3CCC(C2)O3)c2cnn(-c3ccn[nH]3)c2n1 (stereo unspecified) + Cc1cnc(CNC(=O)c2c(=O)c3ccc(N4CCCN(C)CC4)nc3n3c2sc2ccccc23)cn1,IC50,second compound 0.0316 µM,< 0.0316 µM
same,IC50,second compound 0.1 µM,< 0.0316 µM
same,IC50,second compound 0.316 µM,< 0.0316 µM
same,IC50,second compound 1 µM,< 0.0316 µM
same,IC50,second compound 3.16 µM,< 0.0316 µM
same,IC50,second compound 10 µM,< 0.0316 µM
same,"viability, T/C",[1],18.1%
same,"viability, T/C",[2],15.6%
same,"viability, T/C",[3],18.9%
same,"viability, T/C",[4],17.3%
same,"viability, T/C",[5],19.6%
same,"viability, T/C",[6],15.7%
same,"viability, T/C",[7],19.2%
same,"viability, T/C",[8],18.7%
same,"viability, T/C",[9],19.7%
same,"viability, T/C",[10],18.3%
same,"viability, T/C",[11],17.6%
same,"viability, T/C",[12],14.8%
same,"viability, T/C",[13],19.4%
same,"viability, T/C",[14],21.5%
same,"viability, T/C",[15],22%
same,"viability, T/C",[16],18.2%
same,"viability, T/C",[17],17.9%
same,"viability, T/C",[18],12.6%
same,"viability, T/C",[19],21.8%
same,"viability, T/C",[20],23.7%
same,"viability, T/C",[21],21.4%
same,"viability, T/C",[22],17.4%
same,"viability, T/C",[23],15.7%
same,"viability, T/C",[24],12.9%
same,"viability, T/C",[25],23%
same,"viability, T/C",[26],22.9%
same,"viability, T/C",[27],21.1%
same,"viability, T/C",[28],16%
same,"viability, T/C",[29],14.7%
same,"viability, T/C",[30],11%
same,"viability, T/C",[31],0.11%
same,"viability, T/C",[32],1.32%
same,"viability, T/C",[33],1.05%
same,"viability, T/C",[34],1.13%
same,"viability, T/C",[35],1.57%
same,"viability, T/C",[36],0.19%
Cc1cccc(N(C)C(=O)C2C(O)CCN2c2nc(C)cc(C(F)(F)F)c2C#N)c1 (stereo unspecified) + Cc1cnc(CNC(=O)c2c(=O)c3ccc(N4CCCN(C)CC4)nc3n3c2sc2ccccc23)cn1,IC50,second compound 0.0316 µM,> 10 µM
same,IC50,second compound 0.1 µM,> 10 µM
same,IC50,second compound 0.316 µM,> 10 µM
same,IC50,second compound 1 µM,< 0.0316 µM
same,IC50,second compound 3.16 µM,< 0.0316 µM
same,IC50,second compound 10 µM,< 0.0316 µM
same,"viability, T/C",[1],104%
same,"viability, T/C",[2],86.5%
same,"viability, T/C",[3],85%
same,"viability, T/C",[4],88.9%
same,"viability, T/C",[5],88%
same,"viability, T/C",[6],95.4%
same,"viability, T/C",[7],63.1%
same,"viability, T/C",[8],61.9%
same,"viability, T/C",[9],78.3%
same,"viability, T/C",[10],64.9%
same,"viability, T/C",[11],75.6%
same,"viability, T/C",[12],66.5%
same,"viability, T/C",[13],61%
same,"viability, T/C",[14],62.7%
same,"viability, T/C",[15],57.4%
same,"viability, T/C",[16],58.6%
same,"viability, T/C",[17],59.5%
same,"viability, T/C",[18],61.3%
same,"viability, T/C",[19],45.5%
same,"viability, T/C",[20],47.5%
same,"viability, T/C",[21],48.6%
same,"viability, T/C",[22],45.4%
same,"viability, T/C",[23],49.6%
same,"viability, T/C",[24],49.4%
same,"viability, T/C",[25],39.2%
same,"viability, T/C",[26],41.1%
same,"viability, T/C",[27],41.8%
same,"viability, T/C",[28],42.5%
same,"viability, T/C",[29],41.2%
same,"viability, T/C",[30],46.9%
same,"viability, T/C",[31],11%
same,"viability, T/C",[32],11.9%
same,"viability, T/C",[33],33.3%
same,"viability, T/C",[34],30.9%
same,"viability, T/C",[35],25%
same,"viability, T/C",[36],0.29%

# Source: PubChem BioAssay AID2060484 (Molecular Pharmacology Branch, DTP, NCI, 2025)
